The term IC50 denotes the concentration needed to halve the response being measured. A low value points to greater potency in that assay.

Assay [1] addresses T1, Lysine-specific demethylase 4C (Homo sapiens, UniProt Q9H3R0).
T1 sequence (Q9H3R0 whole entry): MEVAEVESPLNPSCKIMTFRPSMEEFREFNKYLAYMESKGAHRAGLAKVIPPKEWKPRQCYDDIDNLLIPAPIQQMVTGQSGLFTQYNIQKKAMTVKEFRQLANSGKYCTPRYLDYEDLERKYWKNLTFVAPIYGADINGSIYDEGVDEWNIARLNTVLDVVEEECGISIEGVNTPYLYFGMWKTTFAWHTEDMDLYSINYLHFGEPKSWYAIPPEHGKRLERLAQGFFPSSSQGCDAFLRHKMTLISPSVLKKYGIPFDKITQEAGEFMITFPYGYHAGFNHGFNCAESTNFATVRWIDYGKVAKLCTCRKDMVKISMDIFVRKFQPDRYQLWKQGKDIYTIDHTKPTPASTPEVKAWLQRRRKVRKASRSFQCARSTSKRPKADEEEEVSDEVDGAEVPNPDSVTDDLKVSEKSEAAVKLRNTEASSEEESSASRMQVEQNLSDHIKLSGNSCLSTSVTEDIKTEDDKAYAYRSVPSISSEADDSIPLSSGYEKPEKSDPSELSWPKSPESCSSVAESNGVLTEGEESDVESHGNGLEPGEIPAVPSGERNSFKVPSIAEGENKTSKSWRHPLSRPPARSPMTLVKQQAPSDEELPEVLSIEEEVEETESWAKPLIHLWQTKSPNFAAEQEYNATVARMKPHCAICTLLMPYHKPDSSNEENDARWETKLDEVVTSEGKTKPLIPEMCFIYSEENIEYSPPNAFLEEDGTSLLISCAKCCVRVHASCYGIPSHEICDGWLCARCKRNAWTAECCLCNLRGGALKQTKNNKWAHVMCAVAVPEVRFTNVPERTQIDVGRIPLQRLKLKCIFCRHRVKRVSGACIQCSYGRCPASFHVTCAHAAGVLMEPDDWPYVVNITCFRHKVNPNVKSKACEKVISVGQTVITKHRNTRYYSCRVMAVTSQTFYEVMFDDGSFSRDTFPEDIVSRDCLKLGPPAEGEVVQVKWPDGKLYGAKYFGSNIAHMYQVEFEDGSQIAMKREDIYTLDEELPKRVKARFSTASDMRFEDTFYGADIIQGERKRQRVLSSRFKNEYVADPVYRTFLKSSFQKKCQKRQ
The experiment in a line: Inhibition of human KDM4C (1 to 347 residues) catalytic domain measured formaldehyde dehydrogenase (FDH)-coupled fluorescence assay.

Assay [2] concerns the target T2, Lysine-specific demethylase 4E (Homo sapiens, UniProt B2RXH2).
T2 sequence (B2RXH2 whole entry): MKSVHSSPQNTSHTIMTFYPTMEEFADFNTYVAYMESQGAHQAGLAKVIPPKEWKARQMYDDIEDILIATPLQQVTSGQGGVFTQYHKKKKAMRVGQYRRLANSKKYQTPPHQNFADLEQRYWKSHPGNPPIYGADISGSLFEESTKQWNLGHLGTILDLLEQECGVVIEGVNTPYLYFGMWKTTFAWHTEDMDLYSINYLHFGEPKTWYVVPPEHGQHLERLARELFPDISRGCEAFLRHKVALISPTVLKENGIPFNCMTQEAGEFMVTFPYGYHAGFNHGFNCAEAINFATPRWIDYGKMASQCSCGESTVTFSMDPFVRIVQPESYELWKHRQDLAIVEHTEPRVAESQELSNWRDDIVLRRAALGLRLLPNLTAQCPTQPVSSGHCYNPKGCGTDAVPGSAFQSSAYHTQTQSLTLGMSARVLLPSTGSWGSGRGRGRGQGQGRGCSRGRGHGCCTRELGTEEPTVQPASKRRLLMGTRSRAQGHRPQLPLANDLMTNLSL
Nature of the assay: Inhibition of human KDM4E (1 to 378 residues) catalytic domain measured formaldehyde dehydrogenase (FDH)-coupled fluorescence assay.

Take `COC(=O)Cc1cc(O)n(-c2nc3ccccc3[nH]2)n1`: the IC50 in assay [1] and in assay [2] was 4 µM each time.

(Values after ChEMBL document CHEMBL5137065, “Recent Advances with KDM4 Inhibitors and Potential Applications” (J Med Chem, 2022).)
